This is an account of results in ChEMBL document CHEMBL5046256, “The discovery of potent small molecule cyclic urea activators of STING” (Eur J Med Chem, 2022).

The half-life is the time needed for the level to fall by half in the phase considered. The EC50 is the concentration giving half of the maximal effect. As a reminder, the bioavailability is the share of a dose that reaches the circulation, judged against a reference dose that is usually intravenous. What is called Cmax is the maximum level reached in the sampled fluid or tissue. As usually defined, the AUC is concentration integrated over time.

The source made the active and inactive calls.

Series [1] concerns HEK-293T. In words: Agonist activity against human STING R232H variant transfected in HEK-293T cells co-expressing ISRE.ISG54 at 0.5 uM by luciferase reporter gene assay relative to control. The series is classed as cell-based. In general terms: A reporter such as luciferase makes a cellular process visible.
For series [2], the system named is HEK-293T. Description: Agonist activity against human STING R232H variant transfected in HEK-293T cells co-expressing ISRE.ISG54 at 0.2 uM by luciferase reporter gene assay relative to control. It is filed as cell-based. The note with it: filed as agonist.
Series [3] concerns HEK-293T. In words: Agonist activity against human STING R232H variant transfected in HEK-293T cells co-expressing ISRE.ISG54 at 1 uM by luciferase reporter gene assay relative to control. It is filed as cell-based. The note with it: filed as agonist.
The nature of series [4]: Half life in Balb/c mouse at 25 mg/kg, iv measured by LC-MS/MS analysis. The series is classed as ADME, organism-based. To be noted: in vivo.
The target of series [5] is T1, Stimulator of interferon genes protein (Homo sapiens, UniProt Q86WV6). Description: Agonist activity against human STING HAQ variant expressed in HEK-293T cells co-expressing ISRE.ISG54 incubated for 18 hrs by luciferase reporter gene assay. It is filed as cell-based.
T1 sequence (Q86WV6 whole entry, looked up, stated change not applied): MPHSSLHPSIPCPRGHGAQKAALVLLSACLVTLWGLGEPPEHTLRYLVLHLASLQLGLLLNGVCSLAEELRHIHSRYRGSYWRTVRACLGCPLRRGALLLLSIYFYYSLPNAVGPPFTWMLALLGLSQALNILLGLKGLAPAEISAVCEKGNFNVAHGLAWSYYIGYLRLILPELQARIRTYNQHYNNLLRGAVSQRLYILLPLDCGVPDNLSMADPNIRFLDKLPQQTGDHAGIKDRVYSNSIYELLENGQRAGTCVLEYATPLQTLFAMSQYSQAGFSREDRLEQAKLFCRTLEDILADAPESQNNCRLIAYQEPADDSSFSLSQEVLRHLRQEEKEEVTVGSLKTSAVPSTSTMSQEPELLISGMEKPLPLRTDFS
A short description of series [6]: Oral bioavailability in Balb/c mouse at 25 mg/kg measured by LC-MS/MS analysis. The note with it: in vivo. The series is classed as ADME, organism-based.
In series [7] the target is T1, Stimulator of interferon genes protein. In words: Agonist activity against human STING AQ variant transfected in HEK-293T cells co-expressing ISRE.ISG54 incubated for 18 hrs by luciferase reporter gene assay. The series is classed as cell-based.
Series [8] can be described thus: Cmax/C0 in monkey at 2.5 mg/kg, iv measured by LC-MS/MS analysis. The note with it: rhesus monkey, in vivo. The series is classed as ADME, organism-based, Macaca mulatta. More on the design: route intravenous, dose 2.5 mg/kg.
Series [9] is described as follows: Agonist activity against human STING R232H variant transfected in HEK-293T cells co-expressing ISRE.ISG54 by luciferase reporter gene assay. The note with it: Homo sapiens, HEK-293T. It is filed as cell-based.
Series [10] addresses T1, Stimulator of interferon genes protein. Description: Agonist activity against human STING H232 variant transfected in HEK-293T cells co-expressing ISRE.ISG54 incubated for 18 hrs by luciferase reporter gene assay. It is filed as cell-based.
Series [11] can be described thus: AUC in monkey at 2.5 mg/kg, iv measured by LC-MS/MS analysis. To be noted: rhesus monkey, in vivo. More on the design: dose 2.5 mg/kg. It is filed as ADME, organism-based, Macaca mulatta.
The test system of series [12] is PBMC. In words: Effect of compound on STING phosphorylation in cynomolgus monkey PBMC cells at 10 uM for 2 hrs by immunoblotting. The series is classed as functional, cell-based. To be noted: Macaca fascicularis. For orientation: A western blot detects proteins with antibodies after separation by electrophoresis.
A short description of series [13]: Cmax/C0 in Balb/c mouse at 25 mg/kg, po measured by LC-MS/MS analysis. It is filed as ADME, organism-based. More on the design: route oral, dose 25 mg/kg. To be noted: in vivo.
In series [14] the test system is Stimulator of interferon genes protein (Homo sapiens), Q86WV6 [UNDEFINED MUTATION]. Description: Binding affinity to human STING R232 variant expressed in HEK-293T cells assessed as increase in thermal stability measured between 51 and 56 deg C at 10 uM for 2 hrs by cellular thermal shift assay. The note with it: filed as agonist. The series is classed as cell-based.
Chain of Stimulator of interferon genes protein (Homo sapiens), Q86WV6 [UNDEFINED MUTATION] (Q86WV6 whole entry, looked up, change not shown): as the sequence (Q86WV6 whole entry, looked up, stated change not applied) above

Series [15] is described as follows: Half life in monkey at 2.5 mg/kg, iv measured by LC-MS/MS analysis. It is filed as ADME, organism-based, Macaca mulatta. To be noted: rhesus monkey, in vivo.
Series [16] can be described thus: Agonist activity against cynomolgus monkey STING expressed in HEK-293T cells co-expressing co-expressing ISRE.ISG54 by luciferase reporter gene assay. The series is classed as cell-based. The note with it: Macaca fascicularis.
Series [17] can be described thus: Half life in Balb/c mouse at 25 mg/kg, po measured by LC-MS/MS analysis. The series is classed as ADME, organism-based. The note with it: in vivo.
For series [18], the target named is T1, Stimulator of interferon genes protein. Description: Agonist activity against human STING HAQ variant expressed in THP-1 cells co-expressing ISRE.ISG54 incubated for 18 hrs by luciferase reporter gene assay. The series is classed as cell-based.
The subject of series [19] is PBMC. Description: Effects of compound on IL-6 production in cynomolgus monkey PBMC cells assessed as increase in IL-6 level at 10 uM and measured upto 24 hrs by ELISA. It is filed as functional, cell-based. To be noted: Macaca fascicularis. In general terms: ELISA stands for enzyme-linked immunosorbent assay.
Series [20] relates to PBMC. In words: Effect of compound on IRF3 phosphorylation in cynomolgus monkey PBMC cells at 10 uM for 2 hrs by immunoblotting. The series is classed as functional, cell-based. The note with it: Macaca fascicularis.
The nature of series [21]: Cmax/C0 in Balb/c mouse at 25 mg/kg, iv measured by LC-MS/MS analysis. It is filed as ADME, organism-based. More on the design: route intravenous, dose 25 mg/kg. To be noted: in vivo.
The target of series [22] is T1, Stimulator of interferon genes protein. Description: Agonist activity against human STING Q variant expressed in HEK293T cells co-expressing ISRE.ISG54 incubated for 18 hrs by luciferase reporter gene assay. To be noted: hek-293t. The series is classed as cell-based.
The subject of series [23] is PBMC. Description: Effects of compound on IFN-beta production in cynomolgus monkey PBMC cells assessed as increase in […] level at 10 uM and measured upto 24 hrs by ELISA. To be noted: Macaca fascicularis. It is filed as functional, cell-based.
Series [24] in a line: AUC in Balb/c mouse at 25 mg/kg, iv measured by LC-MS/MS analysis. Further details: dose 25 mg/kg. To be noted: in vivo. It is filed as ADME, organism-based.
The nature of series [25]: AUC in Balb/c mouse at 25 mg/kg, po measured by LC-MS/MS analysis. It is filed as ADME, organism-based. Further details: dose 25 mg/kg. To be noted: in vivo.
Series [26] relates to PBMC. Description: Effects of compound on IFN-alpha production in cynomolgus monkey PBMC cells assessed as increase in […] level at 10 uM and measured upto 24 hrs by ELISA. The note with it: Macaca fascicularis. The series is classed as functional, cell-based.

Molecule `CC1c2ccc(C(=O)NCc3c(F)cc(F)cc3F)cc2N(Cc2ccccc2F)C(=O)N1C` (stereo not given) came in with an Activity with HEK-293T [1] (filed as agonist) of 54%.

In the case of `Cc1cc(CN2C(=O)N(C)C(C)c3ccc(C(=O)NCc4c(F)cc(F)cc4F)cc32)on1` (stereo not given), the Activity with HEK-293T [1] came out at 6%.

For `Cc1cc(CN2C(=O)N(C)C(C)c3ccc(C(=O)NCc4c(F)cc(F)cc4F)cc32)no1` (stereo not given), the Activity in the series on HEK-293T [1] was found to be 6%.

In the series on HEK-293T [1] (filed as agonist), `Cc1cc(CN2C(=O)N(C)C(C)c3ccc(C(=O)NCc4c(F)cc(F)cc4F)cc32)c(F)cn1` (stereo not given) yielded an Activity of 64%.

Turning to `CC1c2ccc(C(=O)NCc3c(F)cc(F)cc3F)cc2N(Cc2cc(F)cc(F)c2)C(=O)N1C` (racemic), in the series on HEK-293T [2], the Activity amounted to 81%.

As for `CC1c2ccc(C(=O)NCc3c(F)cc(F)cc3F)cc2N(Cc2ccccc2)C(=O)N1C` (racemic), the Activity in the series with HEK-293T [3] was found to be 73%; in the series with HEK-293T [1] (filed as agonist), 74%.

Regarding `C[C@H]1c2ccc(C(=O)NCc3c(F)cc(F)cc3F)cc2N(Cc2c(F)cccc2Cl)C(=O)N1C`, the values for the half-life in [4], in [15] and in series [17] were 84 min, 426 min and 96 min, respectively. In addition, the EC50 in series [5] is 26 nM; in series [7], 83 nM; in [9] it was 18 nM; in [10], 59 nM; in [16], 99 nM; in [18], 341 nM. This molecule also returned an EC50 in [22] of 90 nM. In series [6], this molecule showed a bioavailability of 44%. For the same molecule, the peak concentration (Cmax) in series [8] amounted to 5220 ng/mL; in [13], 2480 ng/mL; in [21], 20100 ng/mL. Moreover, the AUC was determined as 8050 ng·h/mL in [11], 10900 ng·h/mL in series [24] and 4850 ng·h/mL in [25]. The outcome (with PBMC [12]; in [14]; with PBMC [19]; with PBMC [20]; with PBMC [23]; in the series on PBMC [26]) was Active.
